These results are taken from PMC5472784, “Pyrazinamide and derivatives block ethylene biosynthesis by inhibiting ACC oxidase” (Nature Communications, 2017).

Test [1] deals with T1, AtACO2 (Arabidopsis thaliana, UniProt Q41931). Put plainly: ACO enzymatic activity assay and kinetic analysis (ethylene by GC-FID). The class given is biochemical.
A further test addresses T2, AtACO1 (Arabidopsis thaliana, UniProt Q9ZUN4).
T2 sequence (Q9ZUN4 1-310): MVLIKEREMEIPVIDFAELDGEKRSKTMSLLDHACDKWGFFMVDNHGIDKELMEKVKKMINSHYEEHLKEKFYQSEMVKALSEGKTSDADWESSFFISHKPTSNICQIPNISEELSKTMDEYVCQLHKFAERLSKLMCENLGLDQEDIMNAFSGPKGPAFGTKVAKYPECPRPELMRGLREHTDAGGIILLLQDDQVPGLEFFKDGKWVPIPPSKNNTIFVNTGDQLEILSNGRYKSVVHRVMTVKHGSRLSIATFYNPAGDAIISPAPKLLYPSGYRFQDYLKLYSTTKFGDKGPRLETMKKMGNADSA
Put plainly: ACO enzymatic activity assay, kinetic analysis. The class given is biochemical. The conditions noted are these: varying ACC, 200 μM POA, unit inferred. How it is done: (§1) The activity was performed following previously published protocol. The reaction mixture contains 50 mM MOPS, pH 7.4, 10% glycerol (v/v), 5 mM ascorbic acid, 20 mM NaHCO3, 0.02 mM FeSO4, 1 mM DTT, and different amounts of ACC and PZA/POA as indicated. The reaction was initiated by the addition of 5 μg ACO protein and immediately sealed with a rubber stopper. After incubation at 30 °C for 30 min with shaking, 100 μl of gas product was withdrawn by syringe from the headspace of the vial and injected into the GC-FID. The area of the ethylene peak was integrated with Agilent Chemstation and results were analysed using the program GraphPad Prism (version 5.01; GraphPad Software Inc., San Diego, CA, USA). The initial velocities were plotted against starting ACC concentrations in a double-reciprocal manner and the kinetic parameters were deduced.

Another test deals with AtACO3 (Arabidopsis thaliana, UniProt O65378). Put plainly: ACO enzymatic activity assay, kinetic analysis. The class given is biochemical. The conditions noted are these: varying ACC, 200 μM POA, unit inferred. How it is done:
as §1

For another test, the target named is AtACO4 (Arabidopsis thaliana, UniProt Q06588). Put plainly: ACO enzymatic activity assay, kinetic analysis. The class given is biochemical. Particulars: varying ACC, 200 μM POA, unit inferred. Here is the method:
as §1

The target in the next test is T3, AtACO5 (Arabidopsis thaliana, UniProt Q0WPW4).
T3 sequence (Q0WPW4 1-307): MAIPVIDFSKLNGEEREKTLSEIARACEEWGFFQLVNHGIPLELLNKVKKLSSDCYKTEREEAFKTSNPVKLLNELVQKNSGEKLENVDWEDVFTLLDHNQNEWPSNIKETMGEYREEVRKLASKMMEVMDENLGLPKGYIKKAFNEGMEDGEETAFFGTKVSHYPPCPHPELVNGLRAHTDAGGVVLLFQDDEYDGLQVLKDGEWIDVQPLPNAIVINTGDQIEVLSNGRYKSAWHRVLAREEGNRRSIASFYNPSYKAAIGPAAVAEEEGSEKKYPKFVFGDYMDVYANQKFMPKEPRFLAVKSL
Put plainly: ACO enzymatic activity assay, kinetic analysis. The class given is biochemical. Particulars: varying ACC, 200 μM POA, unit inferred. Here is the method: as §1

Test [2] addresses the other four ACO proteins in Arabidopsis (AtACO1, AtACO3, AtACO4 and AtACO5). Put plainly: ACO kinetic analysis, span over the other four ACO proteins. The class given is biochemical, Arabidopsis thaliana. The conditions noted are these: span over AtACO1, 3, 4, 5. How it is done:
as §1

The target of test [3] is T1, AtACO2. Put plainly: Isothermal titration calorimetry. The class given is binding. Particulars: ITC, 25 °C, read-out: dissociation constant (KD), AtACO2. How it is done: (§2) ITC experiments were performed using a MicroCal iTC200 (GE Healthcare) at 25 °C. Small molecules and proteins were in the same buffer containing 25 mM Bis–Tris (pH 6.0), 150 mM NaCl, 0.1 mM ZnCl2 (or 0.2 mM FeSO4 for POA and AtACO2). The concentration of small molecules in the syringe was 1 mM, and the concentration of proteins in the cell was 90 μM. Data were analysed with a one-site model using Origin 7.0 (OriginLab).
Background: Isothermal titration calorimetry measures the heat released or taken up as one component is titrated into another.

The target of test [4] is T4, anthocyanidin synthase (ANS) (Arabidopsis thaliana, UniProt Q96323).
T4 construct: GST; made in house
Put plainly: Isothermal titration calorimetry. It counts as binding. The conditions noted are these: ITC. How it is done: as §2

Test [5] has as its target T5, gibberellin C2 oxidase 2 (GA2OX2) (Arabidopsis thaliana, UniProt Q9XFR9).
T5 construct: GST; made in house
T5 sequence (Q9XFR9 1-341): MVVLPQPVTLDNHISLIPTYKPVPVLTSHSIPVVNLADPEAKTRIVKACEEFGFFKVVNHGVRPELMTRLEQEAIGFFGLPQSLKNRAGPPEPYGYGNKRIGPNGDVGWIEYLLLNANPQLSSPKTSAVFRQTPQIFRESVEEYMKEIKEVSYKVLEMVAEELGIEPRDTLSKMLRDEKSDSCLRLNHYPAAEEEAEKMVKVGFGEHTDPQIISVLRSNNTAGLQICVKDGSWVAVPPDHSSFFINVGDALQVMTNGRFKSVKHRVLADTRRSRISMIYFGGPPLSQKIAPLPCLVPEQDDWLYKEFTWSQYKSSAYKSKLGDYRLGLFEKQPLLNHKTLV
In words: Isothermal titration calorimetry. The class given is binding. Particulars: ITC. How it is done:
as §2

For test [6], the system named is dioxygenase for auxin oxidation (DAO). In words: Isothermal titration calorimetry. The class given is binding, Arabidopsis thaliana. The conditions noted are these: ITC. Here is the method:
as §2

In test [7] the test system is Arabidopsis etiolated seedlings (Col-0, eto1-2, ctr1-1, ein2-5). Put plainly: Ethylene response phenotype of 3-day-old etiolated seedlings (hypocotyl and root length, root hairs, root cells). Particulars: 3-day-old etiolated eto1-2 seedlings, MS medium with compound (50 μM shown). The class given is in vivo, Arabidopsis thaliana.
Test [8] relates to ethylene production of Arabidopsis seedlings. In words: Measurement of ethylene production of seedlings (GC-FID). It counts as in vivo, Arabidopsis thaliana. Particulars: 100 μM ACC, 500 μM compound, 24 h. How it is done: Ethylene production was determined as follows: 30 3-day-old etiolated or 5-day-old green seedlings of Col-0, eto1-2 or other mutants were selected randomly and sealed in a 30 ml vial containing 3 ml liquid MS medium supplemented with indicated treatments. The vial was sealed with a rubber stopper for 24 h at 22 °C prior to ethylene sampling. A 250 μl sample of the headspace gas was withdrawn using a gas-tight syringe from each chamber through the septum stopper, and injected into a gas chromatograph (Agilent 6890NGC, Agilent Technologies, USA) that was equipped with a HP-PLOTQ column (40 m × 530 μm × 40 μm) and a flame ionization detector (FID)[44]. Separations were carried out at 60 °C using N2 as the carrier gas. The area of the ethylene peak was integrated with Agilent Chemstation and results were expressed as the average relative ethylene production (%) of each treatment.

Test [9] has as its target T1, AtACO2. In words: Fragmentation (stability) of purified AtACO2. Particulars: 200 μM POA, 30 °C. How it is done:
Purified AtACO2 was incubated with or without 200 μM POA at 30 °C in a buffer containing 50 mM MOPS, pH 7.2, 10% glycerol (v/v), 5 mM ascorbic acid, 20 mM NaHCO3, 0.02 mM FeSO4, 1 mM ACC and 1 mM DTT. At the indicated time point, the reaction was terminated by the addition of SDS-PAGE loading buffer followed by boiling. Fragmentation of AtACO2 was visualized on a SDS-PAGE gel.

Read-outs that look alike come from different tables or passages of the source.

T1 sequence (Q41931 1-303): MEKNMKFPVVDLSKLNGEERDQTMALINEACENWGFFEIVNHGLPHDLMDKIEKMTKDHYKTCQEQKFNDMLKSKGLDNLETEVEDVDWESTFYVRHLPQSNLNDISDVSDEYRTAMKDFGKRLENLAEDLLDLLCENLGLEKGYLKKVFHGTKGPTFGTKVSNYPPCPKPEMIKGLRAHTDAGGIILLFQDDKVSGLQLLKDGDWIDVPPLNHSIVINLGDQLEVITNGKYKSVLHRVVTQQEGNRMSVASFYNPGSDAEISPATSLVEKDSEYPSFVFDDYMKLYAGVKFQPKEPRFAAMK
Chain of AtACO3 (O65378 whole entry): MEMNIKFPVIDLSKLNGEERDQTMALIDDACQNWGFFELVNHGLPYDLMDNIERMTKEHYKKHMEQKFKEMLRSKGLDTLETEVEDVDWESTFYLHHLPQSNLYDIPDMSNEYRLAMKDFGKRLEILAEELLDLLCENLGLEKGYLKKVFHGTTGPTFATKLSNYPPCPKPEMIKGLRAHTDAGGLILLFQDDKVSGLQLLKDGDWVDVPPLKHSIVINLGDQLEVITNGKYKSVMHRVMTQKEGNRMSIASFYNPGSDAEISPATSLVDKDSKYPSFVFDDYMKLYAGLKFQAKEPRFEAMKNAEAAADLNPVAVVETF
Chain of AtACO4 (Q06588 whole entry): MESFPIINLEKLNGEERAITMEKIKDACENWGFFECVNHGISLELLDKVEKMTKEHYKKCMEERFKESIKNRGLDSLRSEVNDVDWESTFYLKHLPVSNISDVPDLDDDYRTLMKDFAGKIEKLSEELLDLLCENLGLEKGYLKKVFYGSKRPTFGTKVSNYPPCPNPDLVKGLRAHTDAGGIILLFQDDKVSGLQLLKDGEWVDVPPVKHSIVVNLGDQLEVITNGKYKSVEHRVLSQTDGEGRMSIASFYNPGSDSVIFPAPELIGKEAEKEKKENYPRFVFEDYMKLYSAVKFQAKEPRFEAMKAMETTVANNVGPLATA
T4 sequence (Q96323 whole entry): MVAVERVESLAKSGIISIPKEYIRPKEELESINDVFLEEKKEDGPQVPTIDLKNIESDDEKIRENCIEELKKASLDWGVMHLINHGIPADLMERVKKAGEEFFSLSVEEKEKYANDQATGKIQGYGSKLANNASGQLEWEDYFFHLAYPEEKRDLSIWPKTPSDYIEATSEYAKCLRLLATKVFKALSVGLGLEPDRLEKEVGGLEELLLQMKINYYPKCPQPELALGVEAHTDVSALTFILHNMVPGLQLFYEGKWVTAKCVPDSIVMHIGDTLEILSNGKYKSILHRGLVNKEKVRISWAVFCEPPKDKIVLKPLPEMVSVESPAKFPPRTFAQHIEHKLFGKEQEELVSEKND

One may read the Ki as the dissociation constant of the complex between target and ligand, obtained from inhibition or displacement. For orientation: IC50 means the midpoint of a concentration-inhibition curve. In general, Kd refers to the concentration at which binding is half-saturated. Regarding `O=C(O)c1cnccn1` [POA, pyrazinecarboxylic acid], the Ki at AtACO2 [1] (Lineweaver–Burk plots, varying ACC, 100, 200 or 300 μM POA, error represents s.d., read-out: Ki, AtACO2 inhibition) is 89.8 ± 18.3 µM; at AtACO1, 317 ± 90.4 µM; at AtACO3, 187 ± 54.5 µM; at AtACO4, 195 ± 73.3 µM; on AtACO5, 722 ± 536 µM; in test [2], 187 to 722 µM. The “mode of inhibition of ACO” value at AtACO2 [1] (double-reciprocal plots) was “competitive inhibitor”. Moreover, the IC50 at AtACO2 [1] (recombinant AtACO2, ethylene by GC-FID, read-out: IC50, inhibition of AtACO2 activity) came out at 72.1 ± 1.11 µM. Moreover, the Kd on AtACO2 [3] (in the presence of Fe2+) was 14.8 µM; on AtACO2 [3] (in the presence of Zn2+) it was 10.2 µM. Further, the “interaction with ANS” value in test [4] is “no interaction”. For the same compound, the “interaction with GA2OX2” value in test [5] is “no interaction”. In addition, the “interaction with DAO” value in test [6] is reported as “no interaction”. For the same compound, the “short-root and short-hypocotyl phenotype of eto1-2” value in [7] is recorded as “specifically suppressed”. The “ACC-induced ethylene production of Col-0 seedlings” value in test [8] is given as “inhibited”. Further, the “stability of purified AtACO2 protein” value on AtACO2 [9] was “did not obviously change”.
